Drawing on PubChem BioAssay (NCI), this text covers TGI and GI50 for eight molecules.

Among the test systems are ACHN renal; HCC-2998 colon; KM12 colon; MALME-3M melanoma; NCI-H23 lung; SF-295 CNS; SK-OV-3 ovarian; SNB-19 CNS; SNB-75 CNS; U251 CNS.
Holding throughout (assay): growth of human tumour cells (NCI), 48 h

“And” between values parts separate entries of the source, which are not always exact repeats. Equal entries are not always repeated.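 Values below derive from 48-hour exposures of cells grown in 96-well plates, with endpoints linearly interpolated between the two concentrations bracketing the appropriate inhibition level. GI50 marks 50% less growth. TGI marks complete inhibition of growth.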

Regarding `CC(=O)OCC1OC(n2c(-c3ccccc3)cc(-c3ccco3)c(C#N)c2=O)C(OC(C)=O)C(OC(C)=O)C1OC(C)=O` (stereo not given), the TGI with ACHN renal, with HCC-2998 colon, in the experiment with KM12 colon, in the experiment with MALME-3M melanoma, in the experiment with NCI-H23 lung and in the experiment on SF-295 CNS was over 100 µM each time. Besides, the TGI was over 100 µM with SK-OV-3 ovarian; over 100 µM in the experiment with SNB-19 CNS; 40.9 µM and > 100 µM in the experiment with SNB-75 CNS; over 100 µM in the experiment on U251 CNS. The GI50 with KM12 colon is 75 µM and 36.5 µM; with MALME-3M melanoma, 23 µM and 85.9 µM; with SNB-19 CNS, 90.5 µM and 36.3 µM; with SNB-75 CNS it was 13.3 µM and > 100 µM; in the experiment with U251 CNS, 98 µM and 17.8 µM.
In the case of `CN(C(=O)c1ccc(Cl)s1)C(=S)N(C)C(=O)c1ccc(Cl)s1`, the TGI in the experiment with ACHN renal, in the experiment on HCC-2998 colon, in the experiment on KM12 colon, with MALME-3M melanoma, in the experiment with NCI-H23 lung and with SF-295 CNS was over 10 µM each time. Also, the TGI with SK-OV-3 ovarian, in the experiment on SNB-19 CNS, in the experiment with SNB-75 CNS and with U251 CNS was over 10 µM each time.
Consider `COC(=O)c1c(-c2ccccc2)cc2c3cc(-c4ccccc4)c(C(=O)OC)n3c3ccccc3n12`, for which the TGI in the experiment on ACHN renal, with HCC-2998 colon, in the experiment with KM12 colon, in the experiment with MALME-3M melanoma, in the experiment with NCI-H23 lung and in the experiment with SF-295 CNS was over 100 µM in each case. In addition, the TGI in the experiment on SK-OV-3 ovarian was over 100 µM; in the experiment with SNB-19 CNS, over 100 µM; with SNB-75 CNS, 91.6 µM; with U251 CNS, over 100 µM.
`CC[N+](CCCCCCCCCC[N+](CC)(c1ccccn1)c1ccccn1)(c1ccccn1)c1ccccn1`: the GI50 in the experiment on ACHN renal was 2.8 µM; in the experiment on HCC-2998 colon it was 1.95 µM; in the experiment with KM12 colon it was 0.739 µM; in the experiment with MALME-3M melanoma it was 1.52 µM; in the experiment with NCI-H23 lung, 0.696 µM; in the experiment on SF-295 CNS, 0.668 µM. The GI50 in the experiment with SK-OV-3 ovarian is 2.22 µM; in the experiment with SNB-19 CNS it was 0.761 µM; with SNB-75 CNS it was 1.25 µM; in the experiment on U251 CNS it was 0.526 µM. For the same molecule, the TGI with ACHN renal was found to be 12.9 µM; with HCC-2998 colon, 27.2 µM; in the experiment on KM12 colon it was 8 µM; with MALME-3M melanoma, 17.7 µM; with NCI-H23 lung, 17.9 µM; in the experiment with SF-295 CNS, 2.29 µM. The TGI came out at 9.28 µM with SK-OV-3 ovarian, 27.3 µM with SNB-19 CNS, 32.2 µM in the experiment with SNB-75 CNS and 24 µM in the experiment with U251 CNS.
On to `CC(=O)NC(CCCCNC(=O)OCc1ccccc1)C(=O)NCc1ccccc1` (stereo not given), for which the TGI in the experiment on ACHN renal, in the experiment with HCC-2998 colon, in the experiment with KM12 colon, in the experiment with MALME-3M melanoma, in the experiment with NCI-H23 lung and in the experiment on SF-295 CNS was over 100 µM throughout. Also, the TGI with SK-OV-3 ovarian, in the experiment with SNB-19 CNS, in the experiment on SNB-75 CNS and with U251 CNS was over 100 µM throughout.
`COc1ccc(-c2c(C3=NCCN3)nnn2-c2ccccc2)cc1`: the TGI in the experiment with ACHN renal, in the experiment on HCC-2998 colon, in the experiment with KM12 colon, in the experiment with MALME-3M melanoma, in the experiment with NCI-H23 lung and in the experiment with SF-295 CNS was over 100 µM each time. The TGI in the experiment with SK-OV-3 ovarian, in the experiment with SNB-19 CNS, in the experiment with SNB-75 CNS and in the experiment on U251 CNS was over 100 µM each time.
For `Cc1cc2nc3c(C(OC4OC(CO)C(O)C(O)C4O)C(O)CO)nn(-c4ccccc4)c3nc2cc1C` (stereo not given), the TGI in the experiment on ACHN renal, in the experiment on HCC-2998 colon, in the experiment on KM12 colon, with MALME-3M melanoma, in the experiment on NCI-H23 lung and with SF-295 CNS was over 100 µM in each case. Further, the TGI in the experiment on SK-OV-3 ovarian, with SNB-19 CNS, in the experiment with SNB-75 CNS and in the experiment on U251 CNS was over 100 µM throughout.
As for `Cc1cc(/C=C2\SC(=Nc3ccccc3)N(C3CCCC3)C2=O)c(C)n1-c1ccc(Cl)cc1`, the GI50 in the experiment on ACHN renal, in the experiment with HCC-2998 colon, in the experiment on KM12 colon, in the experiment with MALME-3M melanoma, in the experiment on NCI-H23 lung and in the experiment with SF-295 CNS was over 100 µM in each case. Besides, the GI50 in the experiment with SK-OV-3 ovarian, with SNB-19 CNS, in the experiment with SNB-75 CNS and in the experiment on U251 CNS was over 100 µM in each case. The TGI with ACHN renal, in the experiment on HCC-2998 colon, in the experiment with KM12 colon, in the experiment on MALME-3M melanoma, with NCI-H23 lung and with SF-295 CNS was over 100 µM throughout. Further, the TGI with SK-OV-3 ovarian, in the experiment on SNB-19 CNS, with SNB-75 CNS and in the experiment on U251 CNS was over 100 µM in each case.
